Data published in patent publication US20150057350A1, “FIBROSIS BIOMARKERS AND METHODS OF USING SAME” (ABBOTT LABORATORIES, priority 2013, published 2015).

Key:
Format in all cases: in vivo
[1] = test system: Matrix Metalloproteinase-1 (MMP-1); test: 10-day bed rest study in healthy elderly subjects: circulating MMP-1 (RBM Human DiscoveryMAP, serum)
Source text: (§1) The following inclusion criteria were verified at screening: male or female ≧60 to ≦79 years of age; body mass index (BMI) ≧20 but ≦35; ambulatory with a Short Performance Physical Battery (SPPB) score of ≧9 (fully functional with no mobility limitations); and compliance with prescribed activity level. Exclusion criteria ruled out subjects who had undergone recent major surgery, had active malignancy (excepting basal or squamous cell skin carcinoma or carcinoma in situ of the uterine cervix); history of Deep Vein Thrombosis (DVT) or other hypercoagulation disorders; refractory anemia; history of diabetes or fasting blood glucose value >126 mg/dL; presence of partial or full artificial limb; kidney disease or serum creatinine >1.4 mg/dL; evidence of cardiovascular disease assessed during resting or exercise EKG; untreated hypothyroidism; liver disease; chronic or acute GI disease; uncontrolled severe diarrhea, nausea or vomiting; were actively pursuing weight loss; were enrolled in other clinical trials; could not refrain from smoking over the bed rest study period; or could not discontinue anticoagulant therapy over bed rest period. Potential subjects were also excluded if they were taking any medications known to affect protein metabolism (e.g., progestational agents, steroids, growth hormone, dronabinol, marijuana, HMB, free amino acid supplements, dietary supplements to aid weight loss).
(§2) The 24 healthy subjects initially involved in the study were randomized into two groups. Subjects in the treatment group received two β-hydroxy-β-methylbutyrate (HMB) sachets containing 1.5 grams of Ca-HMB (TSI, Salt Lake City, Utah), 4 grams of maltodextrin, and 200 milligrams of calcium with additional sweetener and flavoring agents. Subjects in the control group received two control sachets that were identical to the HMB sachets with the exclusion Ca-HMB. This study was a double-blinded study. Neither the investigators nor the subjects were informed of the identity of any of the study products during the clinical portion of the study. Subjects were instructed to consume a sachet twice daily by mixing a sachet into a non-caloric, non-caffeinated, non-carbonated, non-milk-based beverage of their choice. Treatment with HMB or Control was initiated 5 days prior to bed rest and was continued until the end of the rehabilitation period.
(§3) For diet stabilization over the pre-bed rest and bed rest periods, subjects were fed a metabolically controlled diet providing the RDA for protein intake (0.8 g protein/kg body weight per day). Total calorie needs were estimated using the Harris-Benedict equation for resting energy expenditure according to the following equation: For women=[655+(9.56×body weight in kg)+(1.85×height in cm)−(4.68×age in years)]×AF, and, For men=[66+(13.7×body weight in kg)+(5×height in cm)−([…]]×AF, where AF=activity factor of 1.6 for the ambulatory period and 1.35 for the bed rest period. Given the total calorie and protein intakes, the remainder of the diet was manipulated to keep the non-protein calories at about 60% from carbohydrates and 40% from fat. Water was provided ad libitum.
(§4) After a diet stabilization of 5 days (ambulatory period), subjects remained in bed continuously for 10 days. […] Subjects were constantly monitored by nursing staff and received a daily physical examination by the study physician. […]

[2] = test system: Matrix Metalloproteinase-3 (MMP-3); test: 10-day bed rest study in healthy elderly subjects: circulating MMP-3 (RBM Human DiscoveryMAP, serum)
Source text: as §1, §2, §3
(§5) After a diet stabilization of 5 days (ambulatory period), subjects remained in bed continuously for 10 days. While confined to bed rest, subjects were allowed to use the bedside commode for urination or were taken in a wheelchair for toileting. Subjects were given the option of taking a sponge bath or showering in a wheelchair. Prophylactic measures were taken to detect and prevent deep vein thrombosis including a blood d-dimer test followed by an ultrasound examination if d-dimer test was positive, passive range of motion exercise during bed rest, the use of TED hose and SCD over the bed rest period. Subjects were offered medication to help mitigate reflux problems associated with being supine. Subjects were constantly monitored by nursing staff and received a daily physical examination by the study physician. […]

[3] = test system: Matrix Metalloproteinase-10 (MMP-10); test: 10-day bed rest study in healthy elderly subjects: circulating MMP-10 (RBM Human DiscoveryMAP, serum)
Source text: as §1, §2, §3, §5

[4] = test system: development of fibrosis; test: 10-day bed rest study: all 3 fibrosis markers taken together; details: prolonged period of physical inactivity, human subject
Source text: as §1, with “Potential subjects were also excluded if they were taking any medications known to affect protein metabolism (e.g., progestational agents, steroids, growth hormone, dronabinol, marijuana, HMB, free amino acid supplements, dietary supplements to aid weight loss).” left out
as §4

[5] = after 10 days of bed rest, 10 HMB treated subjects
[6] = post- minus pre-bed rest, 10 days, n = 10, ANCOVA vs control p < 0.0001
[7] = serum, Day 1 of bed rest, after 5 days of Ca-HMB 1.5 g sachet twice daily, n = 10
[8] = serum, end of 10 days bed rest, Ca-HMB 1.5 g sachet twice daily, n = 10

Structure (SMILES): CC(C)(O)CC(=O)O [HMB, β-hydroxy-β-methylbutyric acid]
- average increase in circulating levels of MMP-1 [1, 5]: 2.17 ng/mL
- MMP-1 Change [1, 6]: 2.17 ± 1.06 ng/mL
- effect on the increase in blood levels of MMP-1 that occurs in untreated control subjects ([1]; prolonged bed rest, vs control): enhances the increase
- MMP-1 Pre-bed rest Mean [1, 7]: 11.29 ng/mL
- MMP-1 Post-bed rest Mean [1, 8]: 13.46 ng/mL
- average decrease in blood levels of MMP-3 [2, 5]: 2.71 ng/mL
- change (decrease) in blood levels of MMP-3 [2, 5]: 25%
- MMP-3 Change ([2]; post- minus pre-bed rest, 10 days, n = 10, ANCOVA vs control p = 0.0007): -2.71 ± 0.78 ng/mL
- effect on the decrease in blood levels of MMP-3 that occurs in untreated control subjects ([2]; prolonged bed rest, vs control): reduces or attenuates the decrease
- MMP-3 Pre-bed rest Mean [2, 7]: 10.90 ng/mL
- MMP-3 Post-bed rest Mean [2, 8]: 8.19 ng/mL
- average decrease in blood levels of MMP-10 [3, 5]: 0.09 ng/mL
- decrease in blood levels of MMP-10 [3, 5]: 12%
- MMP-10 Change [3, 6]: -0.09 ± 0.04 ng/mL
- effect on the decrease in blood levels of MMP-10 that occurs in untreated control subjects ([3]; prolonged bed rest, vs control): reduces or attenuates the decrease
- MMP-10 Pre-bed rest Mean [3, 7]: 0.60 ng/mL
- MMP-10 Post-bed rest Mean [3, 8]: 0.51 ng/mL
- effect against development of fibrosis, all 3 markers taken together [4]: protective effect
